Experimental data as given in PMC5218480 (PLoS ONE, 2017).

Tested on: MV-4-11 cells
Assay: Gene expression microarray analysis (Affymetrix PrimeView) and GSEA
Type: cell-based, human
Set-up: RFU PODN (11730768_x_at) / Fold change /veh PODN (11730768_x_at) / RFU LINC00158 (11744669_a_at) / Fold change /veh LINC00158 (11744669_a_at) / RFU DUSP10 (11751237_a_at) / Fold change /veh DUSP10 (11751237_a_at) / RFU ID3 (11757404_x_at) / Fold change /veh ID3 (11757404_x_at) / RFU PLEKHG5 (11737974_s_at) / Fold change /veh PLEKHG5 (11737974_s_at) / RFU LRRC4B (11730491_at) / Fold change /veh LRRC4B (11730491_at) / RFU GIMAP4 (11747438_a_at) / Fold change /veh GIMAP4 (11747438_a_at) / RFU KRT8 (11758183_x_at) / Fold change /veh KRT8 (11758183_x_at) / RFU CNN1 (11734310_a_at) / Fold change /veh CNN1 (11734310_a_at) / RFU VPS37D (11726825_at) / Fold change /veh VPS37D (11726825_at) / RFU C10orf10 (11716522_x_at) / Fold change /veh C10orf10 (11716522_x_at) / RFU KIR2DL2 /// KIR2DL4 /// KIR2DL5A /// KIR2DL5B /// KIR2DS1 /// KIR2DS2 /// KIR2DS3 /// KIR2DS4 /// KIR3DL3 /// KIR3DL3 /// KIR3DS1 (11738374_at) / Fold change /veh KIR2DL2 /// KIR2DL4 /// KIR2DL5A /// KIR2DL5B /// KIR2DS1 /// KIR2DS2 /// KIR2DS3 /// KIR2DS4 /// KIR3DL3 /// KIR3DL3 /// KIR3DS1 (11738374_at) / RFU C1QL1 (11718748_at) / Fold change /veh C1QL1 (11718748_at) / RFU TMPRSS4 (11747572_a_at) / Fold change /veh TMPRSS4 (11747572_a_at) / RFU HAMP (11756126_x_at) / Fold change /veh HAMP (11756126_x_at) / RFU RNFT2 (11725882_a_at) / Fold change /veh RNFT2 (11725882_a_at) / RFU NR4A2 (11747474_a_at) / Fold change /veh NR4A2 (11747474_a_at) / RFU ABCC12 (11746883_a_at) / Fold change /veh ABCC12 (11746883_a_at) / RFU TMEM136 (11760407_x_at) / Fold change /veh TMEM136 (11760407_x_at) / RFU CLDN22 /// WWC2 (11732394_at) / Fold change /veh CLDN22 /// WWC2 (11732394_at) / RFU HLA-DPB1 (11760878_x_at) / Fold change /veh HLA-DPB1 (11760878_x_at) / RFU SPINT1 (11716480_a_at) / Fold change /veh SPINT1 (11716480_a_at) / RFU GAP43 (11754022_s_at) / Fold change /veh GAP43 (11754022_s_at) / RFU A4GNT (11735810_at) / Fold change /veh A4GNT (11735810_at) / RFU PRB3 (11715151_x_at) / Fold change /veh PRB3 (11715151_x_at) / RFU TUBB4B (11761932_at) / Fold change /veh TUBB4B (11761932_at) / RFU CAPN14 (11732068_a_at) / Fold change /veh CAPN14 (11732068_a_at) / RFU TMCC2 (11721928_a_at) / Fold change /veh TMCC2 (11721928_a_at) / RFU IRGQ (11745062_a_at) / Fold change /veh IRGQ (11745062_a_at) / RFU FAM174B (11720279_a_at) / Fold change /veh FAM174B (11720279_a_at) / RFU TMPRSS4 (11748680_a_at) / Fold change /veh TMPRSS4 (11748680_a_at) / RFU FAM212B (11763350_a_at) / Fold change /veh FAM212B (11763350_a_at) / RFU PLEKHG5 (11743358_a_at) / Fold change /veh PLEKHG5 (11743358_a_at) / RFU ZSCAN30 (11745921_a_at) / Fold change /veh ZSCAN30 (11745921_a_at) / RFU CMKLR1 (11741424_a_at) / Fold change /veh CMKLR1 (11741424_a_at) / RFU LOC101060620 /// MAPK8IP1 (11723275_at) / Fold change /veh LOC101060620 /// MAPK8IP1 (11723275_at) / RFU SPTSSB (11747773_x_at) / Fold change /veh SPTSSB (11747773_x_at) / RFU PRSS12 (11739890_at) / Fold change /veh PRSS12 (11739890_at) / RFU BIN1 (11741810_x_at) / Fold change /veh BIN1 (11741810_x_at) / RFU WNT11 (11732464_a_at) / Fold change /veh WNT11 (11732464_a_at) / RFU C10orf10 (11716521_a_at) / Fold change /veh C10orf10 (11716521_a_at) / RFU C5orf56 (11738089_at) / Fold change /veh C5orf56 (11738089_at) / RFU CYB561 (11721691_x_at) / Fold change /veh CYB561 (11721691_x_at) / RFU ANKRD19P (11752326_a_at) / Fold change /veh ANKRD19P (11752326_a_at) / RFU OR2T12 /// OR2T33 /// OR2T8 (11738714_s_at) / Fold change /veh OR2T12 /// OR2T33 /// OR2T8 (11738714_s_at) / RFU VCAN (11748164_a_at) / Fold change /veh VCAN (11748164_a_at) / RFU JSRP1 (11732532_at) / Fold change /veh JSRP1 (11732532_at) / RFU KRTAP10-11 (11738290_x_at) / Fold change /veh KRTAP10-11 (11738290_x_at) / RFU MYO3A (11730013_a_at) / Fold change /veh MYO3A (11730013_a_at) / RFU EBF3 (11725865_a_at) / Fold change /veh EBF3 (11725865_a_at) / RFU CAMK2N1 (11719241_x_at) / Fold change /veh CAMK2N1 (11719241_x_at) / RFU C5orf56 (11738088_a_at) / Fold change /veh C5orf56 (11738088_a_at) / RFU OLFML3 (11715873_a_at) / Fold change /veh OLFML3 (11715873_a_at) / RFU LOC100653217 /// NTM (11731650_a_at) / Fold change /veh LOC100653217 /// NTM (11731650_a_at) / RFU MAPK11 (11762145_a_at) / Fold change /veh MAPK11 (11762145_a_at) / RFU FIZ1 (11724087_x_at) / Fold change /veh FIZ1 (11724087_x_at) / RFU OASL (11726364_x_at) / Fold change /veh OASL (11726364_x_at) / RFU SOX15 (11748057_x_at) / Fold change /veh SOX15 (11748057_x_at) / RFU CD79A (11719716_a_at) / Fold change /veh CD79A (11719716_a_at) / RFU HIST1H1D (11736915_at) / Fold change /veh HIST1H1D (11736915_at) / RFU CASKIN2 (11723855_a_at) / Fold change /veh CASKIN2 (11723855_a_at) / RFU LOC730098 (11760151_x_at) / Fold change /veh LOC730098 (11760151_x_at) / RFU OR4N2 (11742367_at) / Fold change /veh OR4N2 (11742367_at) / RFU PRRT2 (11749266_a_at) / Fold change /veh PRRT2 (11749266_a_at) / RFU SNX32 (11753110_a_at) / Fold change /veh SNX32 (11753110_a_at) / RFU CDHR5 (11726645_a_at) / Fold change /veh CDHR5 (11726645_a_at) / RFU RCAN1 (11760418_a_at) / Fold change /veh RCAN1 (11760418_a_at) / RFU FAM167A (11723789_a_at) / Fold change /veh FAM167A (11723789_a_at) / RFU FAM26E (11764081_at) / Fold change /veh FAM26E (11764081_at) / RFU ISYNA1 (11749810_s_at) / Fold change /veh ISYNA1 (11749810_s_at) / RFU ACY1 (11761880_at) / Fold change /veh ACY1 (11761880_at) / RFU 11764098_at / Fold change /veh 11764098_at / RFU SAMD14 (11745864_x_at) / Fold change /veh SAMD14 (11745864_x_at) / RFU NPB (11741838_a_at) / Fold change /veh NPB (11741838_a_at) / RFU TMPRSS6 (11731388_a_at) / Fold change /veh TMPRSS6 (11731388_a_at) / RFU KRTAP10-2 (11738614_at) / Fold change /veh KRTAP10-2 (11738614_at) / RFU ARHGAP8 /// PRR5-ARHGAP8 (11727945_x_at) / Fold change /veh ARHGAP8 /// PRR5-ARHGAP8 (11727945_x_at) / RFU KRTAP5-7 /// NADSYN1 (11734609_at) / Fold change /veh KRTAP5-7 /// NADSYN1 (11734609_at) / RFU RASL12 (11751679_a_at) / Fold change /veh RASL12 (11751679_a_at) / RFU CDKN2B (11736163_a_at) / Fold change /veh CDKN2B (11736163_a_at) / RFU PRF1 (11729649_at) / Fold change /veh PRF1 (11729649_at) / RFU, ZNF638 /// ZNF638-IT1 / Fold change vs veh, ZNF638 /// ZNF638-IT1 / RFU, PANK3 / Fold change vs veh, PANK3 / RFU, SH3YL1 / Fold change vs veh, SH3YL1 / RFU, ZEB2 / Fold change vs veh, ZEB2 / RFU, NRIP1 / Fold change vs veh, NRIP1 / RFU, PTTG1IP / Fold change vs veh, PTTG1IP / RFU, CAPN2 / Fold change vs veh, CAPN2 / RFU, MED14 / Fold change vs veh, MED14 / RFU, SNORA58 / Fold change vs veh, SNORA58 / RFU, C1orf63 / Fold change vs veh, C1orf63 / RFU, LRRFIP1 / Fold change vs veh, LRRFIP1 / RFU, NDUFAF7 / Fold change vs veh, NDUFAF7 / RFU, SLC12A2 / Fold change vs veh, SLC12A2 / RFU, IBTK / Fold change vs veh, IBTK / RFU, ESF1 / Fold change vs veh, ESF1 / Fold change vs veh, TMEM50B / RFU, TAOK1 / Fold change vs veh, TAOK1 / RFU, ACBD3 / Fold change vs veh, ACBD3 / RFU, TMA16 / Fold change vs veh, TMA16 / RFU, RWDD3 / Fold change vs veh, RWDD3 / RFU, BCAT1 / Fold change vs veh, BCAT1 / RFU, EDEM3 / Fold change vs veh, EDEM3 / RFU, TMEM33 / Fold change vs veh, TMEM33 / RFU, WDR75 / Fold change vs veh, WDR75 / RFU, AHCTF1 / Fold change vs veh, AHCTF1 / RFU, TFRC / Fold change vs veh, TFRC / RFU, ZDHHC17 / Fold change vs veh, ZDHHC17 / RFU, NOM1 / Fold change vs veh, NOM1 / RFU, ARL8B / Fold change vs veh, ARL8B / RFU, ZBTB11 / Fold change vs veh, ZBTB11 / RFU, TAMM41 / Fold change vs veh, TAMM41 / RFU, KIAA1704 /// LOC100996395 / Fold change vs veh, KIAA1704 /// LOC100996395 / RFU, ING1 / Fold change vs veh, ING1 / RFU, TRMT61B / Fold change vs veh, TRMT61B / RFU, FUBP3 / Fold change vs veh, FUBP3 / RFU, TP53 / Fold change vs veh, TP53 / RFU, TNKS2 / Fold change vs veh, TNKS2 / RFU, ZFP14 / Fold change vs veh, ZFP14 / RFU, ACTR2 / Fold change vs veh, ACTR2 / RFU, PPP3R1 / Fold change vs veh, PPP3R1 / RFU, PIK3R1 / Fold change vs veh, PIK3R1 / RFU, HNRNPA1 / Fold change vs veh, HNRNPA1 / RFU, RNF170 / Fold change vs veh, RNF170 / RFU, ZNF28 / Fold change vs veh, ZNF28 / RFU, RNGTT / Fold change vs veh, RNGTT / RFU, OGT / Fold change vs veh, OGT / RFU, BRD1 / Fold change vs veh, BRD1 / RFU, MARS / Fold change vs veh, MARS / RFU, ZNF655 / Fold change vs veh, ZNF655 / RFU, FAHD1 / Fold change vs veh, FAHD1 / RFU, BDP1 / Fold change vs veh, BDP1 / RFU, LRRCC1 / Fold change vs veh, LRRCC1 / RFU, ARID1A / Fold change vs veh, ARID1A / RFU, ZNF146 / Fold change vs veh, ZNF146 / RFU, ZNF330 / Fold change vs veh, ZNF330 / RFU, GPN3 / Fold change vs veh, GPN3 / RFU, C9orf123 / Fold change vs veh, C9orf123 / RFU, N4BP2L2 / Fold change vs veh, N4BP2L2 / RFU, ARFIP1 / Fold change vs veh, ARFIP1 / RFU, FAM179B / Fold change vs veh, FAM179B / RFU, BCL10 / Fold change vs veh, BCL10 / RFU, UHRF1BP1L / Fold change vs veh, UHRF1BP1L / RFU, BET1 / Fold change vs veh, BET1 / RFU, CNOT2 / Fold change vs veh, CNOT2 / RFU, ZNF268 / Fold change vs veh, ZNF268 / Fold change vs veh, ZNF507 / RFU, DGCR2 / Fold change vs veh, DGCR2 / RFU, WDSUB1 / Fold change vs veh, WDSUB1 / Fold change vs veh, HSP90B1 /// MIR3652 / RFU, ADSS / Fold change vs veh, ADSS / RFU, GK / Fold change vs veh, GK / RFU, ZNF148 / Fold change vs veh, ZNF148 / RFU, TAF9 / Fold change vs veh, TAF9 / RFU, SLC1A5 / Fold change vs veh, SLC1A5 / RFU, SLMO2 / Fold change vs veh, SLMO2 / RFU, ABCC4 / Fold change vs veh, ABCC4 / RFU, LOC101060439 /// RAP1B / Fold change vs veh, LOC101060439 /// RAP1B / RFU, RFX7 / Fold change vs veh, RFX7 / RFU, GTPBP10 / Fold change vs veh, GTPBP10 / RFU, CNEP1R1 / Fold change vs veh, CNEP1R1 / RFU, BIVM-ERCC5 /// ERCC5 / Fold change vs veh, BIVM-ERCC5 /// ERCC5 / RFU, ILF3 / Fold change vs veh, ILF3 / RFU 11762660_at / Fold change /veh 11762660_at / RFU VCAN (11757783_s_at) / Fold change /veh VCAN (11757783_s_at) / RFU DDX43 (11728927_at) / Fold change /veh DDX43 (11728927_at) / RFU KRT8 (11758188_x_at) / Fold change /veh KRT8 (11758188_x_at) / RFU NKD1 (11759106_at) / Fold change /veh NKD1 (11759106_at) / RFU SRD5A1 (11742802_a_at) / Fold change /veh SRD5A1 (11742802_a_at) / RFU TPSAB1 /// TPSB2 (11721975_s_at) / Fold change /veh TPSAB1 /// TPSB2 (11721975_s_at) / RFU GSTM3 (11746129_a_at) / Fold change /veh GSTM3 (11746129_a_at) / RFU IL23R (11737362_x_at) / Fold change /veh IL23R (11737362_x_at) / RFU TMEM51 (11727254_a_at) / Fold change /veh TMEM51 (11727254_a_at) / RFU PIWIL2 (11732686_x_at) / Fold change /veh PIWIL2 (11732686_x_at) / RFU ORM1 (11744905_x_at) / Fold change /veh ORM1 (11744905_x_at) / RFU CCDC152 (11743942_at) / Fold change /veh CCDC152 (11743942_at) / RFU ECM1 (11717891_a_at) / Fold change /veh ECM1 (11717891_a_at) / RFU IL23R (11748794_a_at) / Fold change /veh IL23R (11748794_a_at) / RFU TNFAIP8L3 (11732012_x_at) / Fold change /veh TNFAIP8L3 (11732012_x_at) / RFU MBOAT4 (11741988_at) / Fold change /veh MBOAT4 (11741988_at) / RFU 11764193_at / Fold change /veh 11764193_at / RFU TMEM53 (11763286_at) / Fold change /veh TMEM53 (11763286_at) / RFU MAGEB2 (11727129_at) / Fold change /veh MAGEB2 (11727129_at) / RFU TMEM200A (11744735_a_at) / Fold change /veh TMEM200A (11744735_a_at) / RFU CCDC152 (11751479_a_at) / Fold change /veh CCDC152 (11751479_a_at) / RFU FAM211A (11726209_a_at) / Fold change /veh FAM211A (11726209_a_at) / RFU RGS16 (11746705_a_at) / Fold change /veh RGS16 (11746705_a_at) / RFU VCAN (11755009_s_at) / Fold change /veh VCAN (11755009_s_at) / RFU RHOB (11743442_s_at) / Fold change /veh RHOB (11743442_s_at) / RFU RGS16 (11720943_a_at) / Fold change /veh RGS16 (11720943_a_at) / RFU RGS16 (11720944_at) / Fold change /veh RGS16 (11720944_at) / RFU, VPS4B / Fold change vs veh, VPS4B / RFU, CREB1 / Fold change vs veh, CREB1 / RFU, DNAJC13 / Fold change vs veh, DNAJC13 / RFU, GNAQ / Fold change vs veh, GNAQ / RFU, CDK5R1 / Fold change vs veh, CDK5R1 / RFU, ZRANB3 / Fold change vs veh, ZRANB3 / RFU, CUL4A / Fold change vs veh, CUL4A / RFU, CCNY / Fold change vs veh, CCNY / RFU, UFL1 / Fold change vs veh, UFL1 / RFU, COG3 / Fold change vs veh, COG3 / RFU, DIAPH2 / Fold change vs veh, DIAPH2 / RFU, SKA2 / Fold change vs veh, SKA2 / RFU, AFF3 / Fold change vs veh, AFF3 / RFU, LMF1 / Fold change vs veh, LMF1 / RFU, IPO11 / Fold change vs veh, IPO11 / RFU, DFFB / Fold change vs veh, DFFB / RFU, FOXP1 / Fold change vs veh, FOXP1 / RFU, CARD8 / Fold change vs veh, CARD8 / RFU, STRN3 / Fold change vs veh, STRN3 / RFU, ADK / Fold change vs veh, ADK / RFU, RASSF2 / Fold change vs veh, RASSF2 / RFU, WIPF1 / Fold change vs veh, WIPF1 / RFU, LARP1B / Fold change vs veh, LARP1B / RFU, RASA1 / Fold change vs veh, RASA1 / RFU, RB1 / Fold change vs veh, RB1 / RFU, PPFIA1 / Fold change vs veh, PPFIA1 / RFU, MAT2A / Fold change vs veh, MAT2A / RFU, CCT5 / Fold change vs veh, CCT5 / RFU, WDR92 / Fold change vs veh, WDR92 / RFU, CUX1 / Fold change vs veh, CUX1 / RFU, TTC7A / Fold change vs veh, TTC7A / RFU, TMEM135 / Fold change vs veh, TMEM135 / RFU, DEPTOR / Fold change vs veh, DEPTOR / RFU, CPM / Fold change vs veh, CPM / RFU, DNAJB6 / Fold change vs veh, DNAJB6 / RFU, CACNA2D3 / Fold change vs veh, CACNA2D3 / RFU, DTX4 / Fold change vs veh, DTX4 / RFU, TFCP2 / Fold change vs veh, TFCP2 / RFU, GMCL1 /// GMCL1P1 / Fold change vs veh, GMCL1 /// GMCL1P1 / RFU, AEBP2 / Fold change vs veh, AEBP2 / RFU, SNHG1 /// SNORD22 /// SNORD25 /// SNORD26 /// SNORD27 /// SNORD28 /// SNORD29 /// SNORD31 / Fold change vs veh, SNHG1 /// SNORD22 /// SNORD25 /// SNORD26 /// SNORD27 /// SNORD28 /// SNORD29 /// SNORD31 / Fold change (Aza/veh), C12orf56 (ProbeSet 11735607_a_at) / Fold change (ACY-1035/veh), C12orf56 (ProbeSet 11735607_a_at) / Fold change (Aza/veh), FGFR1OP (ProbeSet 11751329_s_at) / Fold change (ACY-1035/veh), FGFR1OP (ProbeSet 11751329_s_at) / Fold change (Aza/veh), VPS36 (ProbeSet 11739960_a_at) / Fold change (ACY-1035/veh), VPS36 (ProbeSet 11739960_a_at) / RFU SYPL1 (11715823_x_at) / Fold change /veh SYPL1 (11715823_x_at) / RFU IGFBP7 (11715501_s_at) / Fold change /veh IGFBP7 (11715501_s_at) / RFU REEP3 (11722064_at) / Fold change /veh REEP3 (11722064_at) / RFU IGLL1 (11728026_x_at) / Fold change /veh IGLL1 (11728026_x_at): dose or concentration left out as unconfirmed
Settings: MV-4-11 cells, 48 hours

Nc1ncn([C@@H]2O[C@H](CO)[C@@H](O)[C@H]2O)c(=O)n1 [azacitidine]
Fold change /veh MBOAT4 (11741988_at): 1.51
